# Data reported in patent US7601850B2, “Phenyl-thiophene type vitamin D receptor modulators” (Eli Lilly and Company, priority 2002, dated 2009).
# Tested on: rat osteocalcin promoter
# Test: OCN (osteocalcin) promoter assay in RG-15 (ROS 17/2.8) cells
# Assay type: cell-based
# Details: Rattus norvegicus
# Description: 4. The OCN Promoter test is described in the “Assay” section of the Description, infra.
# 3. The OCN (Osteocalcin) Promoter Assay
# The OCN Promoter Assay is an indicator and marker for osteoporosis. Desired assay results are EC50 less than or equal to 325 nM. Preferred assay results are less than 50 nM.
# (3) Materials and Method for The OCN Promoter Assay:
# The activation of osteocalcin by VDR ligands was evaluated in a rat osteoblast-like cell line RG-15 (ROS 17/2.8) stably expressing rat osteocalcin promoter fused with luciferase reporter gene. The stable cell lines were established as reported before (Activation of Osteocalcin Transcription involves interaction of protein kinase A- and Protein kinase C-dependent pathways. Boguslawski, G., Hale, L. V., Yu, X.-P., Miles, R. R., Onyia, J. E., Santerre R. F., Chandrasekhar, S. J Biol. Chem. 275, 999-1006, 2000). Confluent RG-15 cells maintained in DMEM/F-12 medium (3:1) containing 5% FBS, 300 µg/ml G418 and at 37° C. under 5% CO2/95% air atmosphere were trypsinized (0.25% trypsin) and plated into white opaque 96-well cell culture plates (25000 cells/well). After 24 hr, cells (in DMEM/F-12 medium+2% FBS) were treated with various concentrations of compounds, dissolved in DMSO. The final DMSO concentration remained at 0.01% (v/v). After 48 hr treatment, the medium was removed, cells were lysed with 50 µl of lysis buffer (From Luciferase reporter assay system, Roche Diagnostics, Indianapolis, Ind.) and assayed for luciferase activity using the Luciferase Reporter Gene Assay kit from Boehringer Mannheim as per manufacturer's specifications.
row,SMILES,EC50 [nM]
1,CCc1cc(C(CC)(CC)c2ccc(S(=O)(=O)NCC(=O)OC)s2)ccc1OCC(O)C(C)(C)C (stereo not drawn) [Ex. 154],20.5
2,CCCc1cc(C(CC)(CC)c2ccc(S(=O)(=O)NCC(=O)O)s2)ccc1OCC(O)C(C)(C)C (stereo not drawn) [Ex. 157],7.65
3,"CCC(=O)NS(=O)(=O)c1sc(C(CC)(CC)c2ccc(OCC(=O)C(C)(C)C)c(C)c2)cc1C [Ex. 163, 5-{1-[4-(3,3-dimethyl-2-oxo-butoxy)-3-methyl-phenyl]-1-ethyl-propyl}-3-methyl-thiophene-2-sulfonic acid propionyl-amide]",106
4,"CCC(CC)(c1ccc(OCC(=O)C(C)(C)C)c(C)c1)c1cc(C)c(S(=O)(=O)NC(=O)C(C)C)s1 [Ex. 164, 5-{1-[4-(3,3-Dimethyl-2-oxo-butoxy)-3-methyl-phenyl]-1-ethyl-propyl}-3-methyl-thiophene-2-sulfonic acid isobutyryl-amide]",150
5,"CCC(CC)(c1ccc(OCC(=O)C(C)(C)C)c(C)c1)c1cc(C)c(S(=O)(=O)NC(=O)C2CC2)s1 [Ex. 165, 5-{1-[4-(3,3-Dimethyl-2-oxo-butoxy)-3-methyl-phenyl]-1-ethyl-propyl}-3-methyl-thiophene-2-sulfonic acid cyclopropanecarbonyl-amide]",138
6,"CCC(CC)(c1ccc(OCC(=O)C(C)(C)C)c(C)c1)c1cc(C)c(S(=O)(=O)NC(=O)COC)s1 [Ex. 166, 5-{1-[4-(3,3-Dimethyl-2-oxo-butoxy)-3-methyl-phenyl]-1-ethyl-propyl}-3-methyl-thiophene-2-sulfonic acid (2-methoxy-acetyl)-amide]",151
7,"CCC(CC)(c1ccc(OCC(O)C(C)(C)C)c(C)c1)c1cc(C)c(-c2n[nH]c(=S)o2)s1 (stereo not drawn) [Ex. 172, 5-(5-{1-Ethyl-1-[4-(2-hydroxy-3,3-dimethyl-butoxy)-3-methyl-phenyl]-propyl}-3-methyl-thiophen-2-yl)-3H-[1,3,4]oxadiazole-2-thione]",17.2
8,"CCC(CC)(c1ccc(CCC(O)C(C)(C)C)c(C)c1)c1cc(C)c(C(=O)OC)s1 (stereo not drawn) [Ex. 174, 5-{1-Ethyl-1-[4-(3-hydroxy-4,4-dimethyl-pentyl)-3-methyl-phenyl]-propyl}-3-methyl-thiophene-2-carboxylic acid methyl ester]",172
9,"CCC(CC)(c1ccc(CCC(O)C(C)(C)C)c(C)c1)c1cc(C)c(C(=O)O)s1 (stereo not drawn) [Ex. 175, 5-{1-Ethyl-1-[4-(3-hydroxy-4,4-dimethyl-pentyl)-3-methyl-phenyl]-propyl}-3-methyl-thiophene-2-carboxylic acid]",127
10,CCC(CC)(c1ccc(CCC(=O)C(C)(C)C)c(C)c1)c1cc(C)c(S(=O)(=O)NCC(=O)O)s1 [Ex. 182],231

# Next, values leading:
row,EC50 [nM],SMILES
1,27.7,CCC(CC)(c1ccc(OCC(=O)C(C)(C)C)c(C)c1)c1cc(C)c(S(=O)(=O)N[C@H](C)C(=O)O)s1 [Ex. 146]
2,128,CCC(CC)(c1ccc(OCC(=S)C(C)(C)C)c(C)c1)c1cc(C)c(S(=O)(=O)N[C@H](C)C(=O)O)s1 [Ex. 147]
3,236,CCC(CC)(c1ccc(OCC(O)C(C)(C)C)c(C)c1)c1cc(C)c(S(=O)(=O)NC(C)(C)C(=O)OC)s1 (stereo not drawn) [Ex. 148]
4,98.3,CCC(CC)(c1ccc(OCC(O)C(C)(C)C)c(C)c1)c1cc(C)c(S(=O)(=O)Nc2ccccc2C(=O)O)s1 (stereo not drawn) [Ex. 149]
5,55.2,CCC(CC)(c1ccc(OCC(O)C(C)(C)C)c(C)c1)c1cc(C)c(S(=O)(=O)N[C@H](C)C(=O)OC)s1 (stereo partly drawn) [Ex. 150]
6,48.2,CCC(CC)(c1ccc(OCC(O)C(C)(C)C)c(C)c1)c1cc(C)c(S(=O)(=O)N[C@H](C)C(=O)O)s1 (stereo partly drawn) [Ex. 151]
7,187,CCC(CC)(c1ccc(OCC(O)C(C)(C)C)c(C)c1)c1ccc(S(=O)(=O)NCC(=O)O)s1 (stereo not drawn) [Ex. 153]
8,77,CCC(CC)(c1ccc(OCC(=O)C(C)(C)C)c(C)c1)c1cc(C)c(S(=O)(=O)/N=C/N(C)C)s1 [Ex. 161]
